Results published in US8575125B2, “Selective inhibitors of CB2 receptor expression and/or activity for the treatment of obesity and obesity-related disorders” (Institut National de la Sante et de la Recherche Medicale …, priority 2007, dated 2013).

Assays:
[1] = tested on: ob/ob mice; assay: Impact of CB2 antagonist on epididymal fat inflammatory gene expression in obese ob/ob mice (quantitative RT-PCR); format: in vivo, mouse; conditions: 1 mg/kg daily intraperitoneal over 17 days, six week-old ob/ob mice
Procedure: Animals and Experimental Design: Experimental protocols were conducted in accordance with French government policies (Services véterinaires de la Santé et de la production animale, Ministère français de l'Agriculture). Animals were housed under 12 hours of light/12 hours of dark cycle, in a temperature-controlled environment. The impact of the CB2 antagonist AM630 was evaluated in 6 week-old male obese Lep^Ob/Lep^Ob male mice (ob/ob) and lean Lep^Ob+/Lep^Ob counterparts (ob+/ob). Mice received an 17 day-course of daily intraperitoneal injection of 1 mg/kg AM630 (n=10 ob/ob and n=5 ob+/ob) or vehicle (n=8 ob/ob and n=5 ob+/ob). AM630 (Tocris) was freshly dissolved in a vehicle solution containing 1 drop of Tween 80 in 0.1 ml dimethylsulfoxide (DMSO), sonicated, and further diluted 50 times in NaCl 9‰. Body weight and food intake were measured daily. Mice were sacrificed after overnight fasting. White epididymal adipose tissue was removed, weighed and either fixed in buffered formalin, or snap frozen in liquid nitrogen. All samples were stored at −80° C. until use.
RNA preparation and RT-PCR: Total RNA was extracted from mice epididymal fat using RNeasy® Lipid Tissue Mini kit (QIAGEN). Quantitative RT-PCR was carried out on a Light Cycler (Roche Diagnostics), as previously described.
The PCR amplified products were analyzed on a 2% agarose gel, and sequenced.

[2] = tested on: overweight and obese patients; conditions: 4 clinical studies, more than 6000 overweight and obese patients; cited from earlier work

Compound	fat inflammatory response ([1]; epididymal fat, vs vehicle)	F4/80 mRNA expression in epididymal fat ([1]; vs vehicle (FIG. 16, p<0.05))	MCP-1 mRNA expression in epididymal fat ([1]; vs vehicle (FIG. 16, p<0.05))	TNF-alpha mRNA expression in epididymal fat ([1]; vs vehicle (FIG. 16, p<0.05))	efficacy with regard to weight loss and reduction of the associated cardiometabolic risks [2]
COc1ccc(C(=O)c2c(C)n(CCN3CCOCC3)c3cc(I)ccc23)cc1 [AM 630]	reduced	lesser induction	lesser induction	lesser induction	
Cc1c(C(=O)NN2CCCCC2)nn(-c2ccc(Cl)cc2Cl)c1-c1ccc(Cl)cc1 [rimonabant, Rimonabant]					consistent efficacy
